Test results taken from patent US8722742B2, “Chemical compounds having antiviral activity against Dengue virus and other Flaviviruses” (Centro de Ingenieria Genetica y Biotecnologia, priority 2008, dated 2014).

test system: DEN2 virus; assay: Plaque inhibition assay in Vero cells; assay type: cell-based, Dengue virus serotype 2; conditions: Dengue virus, 120 h
Description: Vero cells were grown in 24-wells plates until the monolayer reached approximately 90% confluence and two washes of the monolayer were done with medium MEM without SFB. Preparations of DEN2 virus equivalent to a multiplicity of infection of 0.1 were preincubated in MEM medium with and without presence of chemical compounds (100 uM) for about 1 hour at room temperature. Then, the virus/compounds mixture and virus/control mixture were incubated with monolayers for 1 hour at 37° C. After finished incubation, the cells were washed again and incubated during 5 days at 37° C. in high-density medium (MEM supplemented with non-essential amino acids, SFB 1%, carboxymethylcellulose 1%) to facilitate formation of lysis plaques. Blue Black Naphtol 0.1% in sodium acetate 0.15 mol/L was used for staining. In each experiment two replics were tested for each point and three independent determinations were done. The percentage of infection inhibition was calculated according to the following expression: […]

`O=S(=O)(NCCO)c1ccc(S(=O)(=O)N2CCCCC2)cc1` [C-SIJ01042] and `O=S(=O)(NCC1CC1)c1ccc(S(=O)(=O)N2CCCCC2)cc1` [C-SIJ01034] cannot be ordered by inhibition at 100 µM: 70 to 100% for the first, 30 to 100% for the second.

`O=S(=O)(Nc1ccccc1OC(F)F)c1ccc(S(=O)(=O)N2CCOCC2)cc1` [C-SIJ01066] and `CCN(Cc1ccccc1)S(=O)(=O)c1ccc(S(=O)(=O)N2CCOCC2)cc1` [C-SIJ06097] fall in the same range of inhibition at 100 µM: 70 to 100% for the first, 70 to 100% for the second.

`CC1CCCC(C)N1S(=O)(=O)c1ccc(S(N)(=O)=O)cc1` (stereo not shown) [C-SIJ01051] and `CC(C)CNS(=O)(=O)c1ccc(S(=O)(=O)N2C(C)CCCC2C)cc1` (stereo not shown) [C-SIJ01045] fall in the same range of inhibition at 100 µM: 30 to 100% for the first, 30 to 100% for the second.

`O=c1c2cc3c(=O)n(CCCn4ccnc4)c(=O)c3cc2c(=O)n1CCCn1ccnc1` and `O=C(CC1C(=O)c2ccccc2C1=O)Oc1ccc(-c2ccc(OC(=O)CN3C(=O)c4ccccc4C3=O)cc2)cc1` fall in the same range of inhibition at 100 µM: 0 to 30% for the first, 0 to 30% for the second.

`CC(C)(C)C(=O)CNS(=O)(=O)c1ccc(S(=O)(=O)N2CCOCC2)cc1` [C-SIJ01062] and `COC(CNS(=O)(=O)c1ccc(S(=O)(=O)N2CCOCC2)cc1)OC` [C-SIJ01056] fall in the same range of inhibition at 100 µM: 70 to 100% for the first, 70 to 100% for the second.

`O=S(=O)(NCCc1ccccc1)c1ccc(S(=O)(=O)N2CCCCC2)cc1` [C-SIJ01031] and `O=S(=O)(NCc1ccc(F)cc1)c1ccc(S(=O)(=O)N2CCCCC2)cc1` [C-SIJ01033] cannot be ordered by inhibition at 100 µM: 70 to 100% for the first, 30 to 100% for the second.

`O=S(=O)(NCc1ccccc1)c1ccc(S(=O)(=O)NC2CC2)cc1` [C-SIJ01003] and `O=S(=O)(NCc1ccccc1)c1ccc(S(=O)(=O)NC2CCCCC2)cc1` [C-SIJ01002] cannot be ordered by inhibition at 100 µM: 30 to 100% for the first, 70 to 100% for the second.

`CS(=O)(=O)N1CCN(S(=O)(=O)c2ccc(S(=O)(=O)N3CCOCC3)cc2)CC1` [C-SIJ06103] and `O=CN1CCN(S(=O)(=O)c2ccc(S(=O)(=O)N3CCOCC3)cc2)CC1` [C-SIJ06102] cannot be ordered by inhibition at 100 µM: 70 to 100% for the first, 30 to 100% for the second.

`O=S(=O)(NCc1ccc2c(c1)OCO2)c1ccc(S(=O)(=O)NC2CC2)cc1` [C-SIJ01008] and `O=S(=O)(NCc1ccc2c(c1)OCO2)c1ccc(S(=O)(=O)NC2CCCCC2)cc1` [C-SIJ01006] cannot be ordered by inhibition at 100 µM: 30 to 100% for the first, 70 to 100% for the second.

`COc1ccc(/C=N/NC(=O)Cc2ccc([N+](=O)[O-])cc2)cc1OC` [C-SIJ12143] and `O=C(CN1C(=O)c2ccccc2S1(=O)=O)Nc1ccc(S(=O)(=O)N2CCCCCC2)cc1` [C-SIJ04078] fall in the same range of inhibition at 100 µM: 70 to 100% for the first, 70 to 100% for the second.

`O=C(O)[C@H]1CCCN(S(=O)(=O)c2ccc(S(=O)(=O)N3CCCCC3)cc2)C1` [C-SIJ06111] and `CC(=O)N1CCN(S(=O)(=O)c2ccc(S(=O)(=O)NC3CCCCC3)cc2)CC1` [C-SIJ01023] fall in the same range of inhibition at 100 µM: 70 to 100% for the first, 70 to 100% for the second.

`CC1CCCC(C)N1S(=O)(=O)c1ccc(S(=O)(=O)NCCc2ccncc2)cc1` (stereo not shown) [C-SIJ01047] and `O=S(=O)(NCCC1=CCCCC1)c1ccc(S(=O)(=O)NCc2ccc3c(c2)OCO3)cc1` [C-SIJ01009] fall in the same range of inhibition at 100 µM: 70 to 100% for the first, 70 to 100% for the second.

`NS(=O)(=O)c1ccc(S(=O)(=O)N2CCOCC2)cc1` [C-SIJ06099] and `CCCCNS(=O)(=O)c1ccc(S(=O)(=O)N2CCN(C(C)=O)CC2)cc1` [C-SIJ01026] fall in the same range of inhibition at 100 µM: 30 to 100% for the first, 30 to 100% for the second.

`O=S(=O)(NCc1ccco1)c1ccc(S(=O)(=O)NC2CCCCC2)cc1` [C-SIJ01020] and `O=S(=O)(NC(c1ccccc1)c1ccccc1)c1ccc(S(=O)(=O)N2CCCCC2)cc1` [C-SIJ01039] fall in the same range of inhibition at 100 µM: 70 to 100% for the first, 70 to 100% for the second.
